Structures can show the parent of a compound that is named as a salt.
Assays:
[1] = target: T1, NLRP3 (Homo sapiens, UniProt Q96P20); test: THP-1 cells pyroptosis assay (LPS + nigericin, resazurin read-out); format: cell-based; set-up: Seed THP-1 cells (25,000 cells/well) containing 1.0 μg/ml LPS; host or cells: THP-1 cells
How it was run: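 THP-1 cells (25,000/well) primed with 1 μg/ml LPS in serum-free RPMI, treated 3 h with compound (8-point half-log series, 10 μM top, 0.1% DMSO), then 5 μM nigericin for 1 h at 37 °C. Viability read by 100 μM resazurin fluorescence after 1-2 h; IC50 from 4-parameter fit.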

[2] = target: T1, NLRP3; test: Human whole blood IL-1β release assay (LPS + nigericin, AlphaLisa); format: cell-based; set-up: Plate out 80 μl of whole blood containing 1 μg/ml of LPS; from tissue; host or cells: human whole blood from healthy donors
Method: For systemic delivery, the ability to inhibit NLRP3 when the compounds are present within the bloodstream is of great importance. For this reason, the NLRP3 inhibitory activity of a number of compounds in human whole blood was investigated in accordance with the following protocol.
Human whole blood in Li-heparin tubes was obtained from healthy donors from a volunteer donor panel. • 1. Plate out 80 μl of whole blood containing 1 μg/ml of LPS in 96-well, clear bottom cell culture plate (Corning #3585) • 2. Add 10 μl compound (8 points half-log dilution with 10 μM top dose) or vehicle (DMSO 0.1% FAC) to the appropriate wells • 3. Incubate for 3 hrs at 37° C., 5% CO2 • 4. Add 10 μl nigericin (Sigma #N7143) (10 μM FAC) to all wells • 5. Incubate for 1 hr at 37° C., 5% CO2 • 6. At the end of the incubation period, spin plates at 300×g for 5 mins to pellet cells and remove 20 μl of supernatant and add to 96-well v-bottom plates for IL-1β analysis (note: these plates containing the supernatants can be stored at −80° C. to be analysed at a later date) • 7. IL-1β was measured according to the manufacturer protocol (Perkin Elmer-AlphaLisa IL-1 Kit AL220F-5000) • 8. IC50 data is fitted to a non-linear regression equation (log inhibitor vs response-variable slope 4-parameters)

[3] = THP-1 cells, 1 μg/ml LPS, 5 μM nigericin, NLRP3 inhibitory activity, read-out: THP IC50
[4] = human whole blood, 1 μg/ml LPS, 10 μM nigericin, IL-1β release, read-out: HWB IC50

T1 sequence (Q96P20 whole entry): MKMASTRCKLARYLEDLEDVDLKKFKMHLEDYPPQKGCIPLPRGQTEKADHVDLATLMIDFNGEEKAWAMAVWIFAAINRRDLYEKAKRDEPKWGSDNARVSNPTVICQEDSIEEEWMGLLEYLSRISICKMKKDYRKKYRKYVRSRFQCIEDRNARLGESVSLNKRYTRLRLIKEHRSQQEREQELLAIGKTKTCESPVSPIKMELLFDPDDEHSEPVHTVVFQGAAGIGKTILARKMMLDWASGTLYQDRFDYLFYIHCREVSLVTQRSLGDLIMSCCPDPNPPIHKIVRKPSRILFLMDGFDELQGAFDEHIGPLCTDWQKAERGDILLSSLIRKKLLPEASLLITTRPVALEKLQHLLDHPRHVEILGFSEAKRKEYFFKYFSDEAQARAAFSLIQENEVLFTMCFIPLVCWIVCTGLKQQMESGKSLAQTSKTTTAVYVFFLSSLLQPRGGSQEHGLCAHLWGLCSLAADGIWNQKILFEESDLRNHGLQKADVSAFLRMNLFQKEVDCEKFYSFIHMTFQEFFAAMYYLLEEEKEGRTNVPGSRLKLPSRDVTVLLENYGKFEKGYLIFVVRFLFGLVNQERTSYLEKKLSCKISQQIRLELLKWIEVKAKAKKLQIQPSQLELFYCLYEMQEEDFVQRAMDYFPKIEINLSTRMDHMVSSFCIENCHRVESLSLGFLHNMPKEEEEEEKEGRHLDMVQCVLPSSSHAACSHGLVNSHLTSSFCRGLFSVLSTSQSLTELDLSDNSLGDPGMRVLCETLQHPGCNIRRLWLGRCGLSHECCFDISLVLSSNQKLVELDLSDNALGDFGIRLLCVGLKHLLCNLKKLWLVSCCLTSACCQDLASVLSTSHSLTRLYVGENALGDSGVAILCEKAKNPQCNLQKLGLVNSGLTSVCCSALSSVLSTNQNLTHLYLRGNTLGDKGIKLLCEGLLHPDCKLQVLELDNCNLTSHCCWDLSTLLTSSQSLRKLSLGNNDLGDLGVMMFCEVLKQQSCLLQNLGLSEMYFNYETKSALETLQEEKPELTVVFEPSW

SMILES | IC50 [1, 3] | IC50 [2, 4] | IC50 [1] | IC50 [2]
CN1CC2(CCN2S(=O)(=O)NC(=O)Nc2c3c(cc4c2CCC4)CCC3)C1 [Example 91, N-((1,2,3,5,6,7-Hexahydro-s-indacen-4-yl)carbamoyl)-6-methyl-1,6-diazaspiro[3.3]heptane-1-sulfonamide, potassium salt] | < 1000 nM | < 5000 nM |  | 
Cc1cc2c(c(NC(=O)NS(=O)(=O)N(C)C)c1-c1ccnc(OC3CCN(C)CC3)c1)CCC2 [Example 113, N-((6-Methyl-5-(2-((1-methylpiperidin-4-yl)oxy)pyridin-4-yl)-2,3-dihydro-1H-inden-4-yl)carbamoyl)N,N-dimethylsulfamide] |  |  | < 500 nM | < 500 nM
CN1C[C@@H]2CN(S(=O)(=O)NC(=O)Nc3c4c(cc5c3CCC5)CCC4)C[C@@H]21 [Example 93, (1R,5R)—N-((1,2,3,5,6,7-Hexahydro-s-indacen-4-yl)carbamoyl)-6-methyl-3,6-diazabicyclo[3.2.0]heptane-3-sulfonamide, potassium salt] | < 500 nM | < 500 nM |  | 
CN1CCCN(S(=O)(=O)NC(=O)Nc2c3c(cc4c2CCC4)CCC3)CC1 [Example 90, N-((1,2,3,5,6,7-Hexahydro-s-indacen-4-yl)carbamoyl)-4-methyl-1,4-diazepane-1-sulfonamide, potassium salt] | < 1000 nM | < 500 nM |  | 
CN1CCCC1CNS(=O)(=O)NC(=O)Nc1c2c(cc3c1CCC3)CCC2 (stereo not shown) [Example 25, 3-(N-((1-Methylpyrrolidin-2-yl)methyl))sulfamoyl)-1-(1,2,3,5,6,7-hexahydro-s-indacen-4-yl)urea, potassium salt] | < 1000 nM | < 500 nM |  | 
CCN1CCC1CNS(=O)(=O)NC(=O)Nc1c2c(cc3c1CCC3)CCC2 (stereo not shown) [Example 47, 3-(N-((1-Ethylazetidin-2-yl)methyl)sulfamoyl)-1-(1,2,3,5,6,7-hexahydro-s-indacen-4-yl)urea, potassium salt] | < 1000 nM | < 1000 nM |  | 
CN1CCC(NS(=O)(=O)NC(=O)Nc2c3c(cc4c2CCC4)CCC3)C1 (stereo not shown) [Example 44, 3-(N-(1-Methylpyrrolidin-3-yl))sulfamoyl)-1-(1,2,3,5,6,7-hexahydro-s-indacen-4-yl)urea, potassium salt] | < 1000 nM | < 500 nM |  | 
CN1CC[C@H](NS(=O)(=O)NC(=O)Nc2c3c(cc4c2CCC4)CCC3)C1 [Example 88, 3-((S)—N-(1-Methylpyrrolidin-3-yl)sulfamoyl)-1-(1,2,3,5,6,7-hexahydro-s-indacen-4-yl)urea, potassium salt] | < 1000 nM | < 500 nM |  | 
CN1CCC[C@@H]1CN(C)S(=O)(=O)NC(=O)Nc1c2c(cc3c1CCC3)CCC2 [Example 95, 3-((R)—N-Methyl-N-((1-methylpyrrolidin-2-yl)methyl)sulfamoyl)-1-(1,2,3,5,6,7-hexahydro-s-indacen-4-yl)urea, potassium salt] | < 500 nM | < 500 nM |  | 
CN1CC(NS(=O)(=O)NC(=O)Nc2c3c(cc4c2CCC4)CCC3)C1 [Example 34, 3-(N-(1-Methylazetidin-3-yl))sulfamoyl)-1-(1,2,3,5,6,7-hexahydro-s-indacen-4-yl)urea, potassium salt] | < 500 nM | < 500 nM |  | 
CN1CC[C@H](N(C)S(=O)(=O)NC(=O)Nc2c3c(cc4c2CCC4)CCC3)C1 [Example 76, 3-((S)—N-Methyl-N-(1-methylpyrrolidin-3-yl)sulfamoyl)-1-(1,2,3,5,6,7-hexahydro-s-indacen-4-yl)urea, potassium salt] | < 500 nM | < 500 nM |  | 
O=C(Nc1c2c(cc3c1CCC3)CCC2)NS(=O)(=O)N1CCC(N2CCCC2)C1 (stereo not shown) [Example 72, N-((1,2,3,5,6,7-Hexahydro-s-indacen-4-yl)carbamoyl)-[1,3′-bipyrrolidine]-1′-sulfonamide, potassium salt] | < 500 nM | < 500 nM |  | 
CN1CCC1CNS(=O)(=O)NC(=O)Nc1c2c(cc3c1CCC3)CCC2 (stereo not shown) [Example 31, 3-(N-((1-Methylazetidin-2-yl)methyl))sulfamoyl)-1-(1,2,3,5,6,7-hexahydro-s-indacen-4-yl)urea, potassium salt] | < 500 nM | < 500 nM |  | 
CC(C)NCCN(C(C)C)S(=O)(=O)NC(=O)Nc1c2c(cc3c1CCC3)CCC2 [Example 28, 3-(N-Isopropyl-N-(2-(isopropylamino)ethyl))sulfamoyl)-1-(1,2,3,5,6,7-hexahydro-s-indacen-4-yl)urea, potassium salt] | < 500 nM | < 500 nM |  | 
CC(C)N1CC2CN(S(=O)(=O)NC(=O)Nc3c4c(cc5c3CCC5)CCC4)CC21 (stereo not shown) [Example 87, N-((1,2,3,5,6,7-Hexahydro-s-indacen-4-yl)carbamoyl)-6-isopropyl-3,6-diazabicyclo[3.2.0]heptane-3-sulfonamide, potassium salt] | < 500 nM | < 5000 nM |  | 
CCN(CCN(C)C)S(=O)(=O)NC(=O)Nc1c2c(cc3c1CCC3)CCC2 [Example 39, 3-(N-(2-(Dimethylamino)ethyl)-N-ethylsulfamoyl))-1-(1,2,3,5,6,7-hexahydro-s-indacen-4-yl)urea, potassium salt] | < 500 nM | < 1000 nM |  | 
C#CCCC1(CCNS(=O)(=O)NC(=O)Nc2c3c(cc4c2CCC4)CCC3)N=N1 [Example 45, 3-(N-(2-(3-(but-3-yn-1-yl)-3H-diazirin-3-yl)ethyl))sulfamoyl)-1-(1,2,3,5,6,7-hexahydro-s-indacen-4-yl)urea, potassium salt] | < 500 nM | < 10000 nM |  | 
O=C(Nc1c2c(cc3c1CCC3)CCC2)NS(=O)(=O)NCCN1CCC1 [Example 35, 3-(N-(2-(Azetidin-1-yl)ethyl)sulfamoyl)-1-(1,2,3,5,6,7-hexahydro-s-indacen-4-yl)urea, potassium salt] | < 5000 nM | < 1000 nM |  | 
CN1CC2CN(S(=O)(=O)NC(=O)Nc3c4c(cc5c3CCC5)CCC4)C2C1 (stereo not shown) [Example 94, N-((1,2,3,5,6,7-Hexahydro-s-indacen-4-yl)carbamoyl)-3-methyl-3,6-diazabicyclo[3.2.0]heptane-6-sulfonamide, potassium salt] | < 500 nM | < 1000 nM |  | 
CN(C)CCCNS(=O)(=O)NC(=O)Nc1c2c(cc3c1CCC3)CCC2 [Example 81, 3-(N-(3-(Dimethylamino)propyl)sulfamoyl)-1-(1,2,3,5,6,7-hexahydro-s-indacen-4-yl)urea, potassium salt] | < 500 nM | < 500 nM |  | 
CCN1CC2CN(S(=O)(=O)NC(=O)Nc3c4c(cc5c3CCC5)CCC4)CC21 (stereo not shown) [Example 85, 6-Ethyl-N-((1,2,3,5,6,7-hexahydro-s-indacen-4-yl)carbamoyl)-3,6-diazabicyclo[3.2.0]heptane-3-sulfonamide] | < 500 nM | < 500 nM |  | 
CN1CC2CCC(C1)N2S(=O)(=O)NC(=O)Nc1c2c(cc3c1CCC3)CCC2 [Example 37, N-((1,2,3,5,6,7-Hexahydro-s-indacen-4-yl)carbamoyl)-3-methyl-3,8-diazabicyclo[3.2.1]octane-8-sulfonamide, potassium salt] | < 500 nM | < 1000 nM |  | 
O=C(Nc1c2c(cc3c1CCC3)CCC2)NS(=O)(=O)N1CCC(N2CCC2)C1 (stereo not shown) [Example 73, 3-(Azetidin-1-yl)-N-((1,2,3,5,6,7-hexahydro-s-indacen-4-yl)carbamoyl)pyrrolidine-1-sulfonamide, potassium salt] | < 1000 nM | < 5000 nM |  | 
